# Values of other authors as cited in US7871609B2, “Supplements for pain management” (priority 2007, dated 2011).
# Counter-ions that a name gives are not always drawn. Like-named read-outs stand apart in the source and are kept apart here.
# Assays:
# [1] = system: chronically stressed rats
# [2] = system: tumors or masses
# [3] = system: homocysteine-induced atherosclerosis; settings: day 14, homocysteine thiolactone intake, supplemented versus deficient rats
# [4] = system: osteoarthritis (OA) of the knee
# [5] = system: spasmodic dysmenorrhea; settings: 556 girls aged 12-21 yr, oral daily dose of 100 mg for 90 days
# [6] = system: Trembler-J mouse model
# [7] = system: cells in tissue culture that express PMP22 mutants; settings: cells expressing PMP22 mutants
# [8] = system: bilateral olfactory bulbectomy (OB) model
# [9] = system: NF-kappaB signalling in human articular chondrocytes
# [10] = system: forced swimming test; settings: chronic treatment 14 days, 1.25, 2.5, 5 and 10 mg/kg, p.o.
# [11] = system: cultured cerebellar granule neurons (CGNs); settings: exposure to amprolium
smiles,measurement,setting,value
CN(C)CCCN1c2ccccc2CCc2ccccc21 [imipramine],hippocampal neurogenesis,"[1]; 10 mg/kg, i.p.",increased hippocampal neurogenesis
Cc1ncc(C[n+]2csc(CCO)c2C)c(N)n1 [thiamin HCl],osteosarcoma circumference before treatment,"[2]; one case, pathology-confirmed",30 cm
same,osteosarcoma circumference after treatment,"[2]; subcutaneous perfusion of 300 once only, within 2 days",20 cm
same,equivalent reduction in osteosarcoma volume,[2]; within 2 days,50-75%
"Cc1ncc(CO)c(CO)c1O [vitamin B-6, pyridoxine]",aortic lesions,[3],not in vitamin B6-supplemented rats
O=C(O)Cc1ccccc1Nc1c(Cl)cccc1Cl [diclofenac],mean Lequesne's Algofunctional Index (LFI) at end,[4]; after the 6-week observation period,9.4
same,mean Lequesne's Algofunctional Index (LFI) at start,[4]; before the 6-week observation period,12.5
same,tolerability judgment,[4]; majority of patients,very good or good
same,"global judgment of efficacy by physician, at least good ratings","[4]; share of patients, 6 weeks",37.2%
"Cc1ncc(C[n+]2csc(CCO)c2C)c(N)n1 [Vitamin B1, thiamine]",completely cured,[5],87%
same,no effect whatsoever,[5],5%
same,relieved (pain almost nil to reduced),[5],8%
same,cases of Baker's cyst cured without recurrence,[2]; thiamin alone injected,13 out of 15
same,cases of submandibular gland cyst cured without recurrence,[2]; thiamin alone injected,Two
"COc1cc(/C=C/C(=O)CC(=O)/C=C/c2ccc(O)c(OC)c2)ccc1O [Curcumin, diferuloylmethane]",hippocampal neurogenesis,"[1]; 10 and 20 mg/kg, p.o., 20 days chronic stress",increased hippocampal neurogenesis
same,5-HT(1A) mRNA and BDNF protein levels in the hippocampal subfields,[1]; chronic stress,significantly prevented the stress-induced decrease
same,motor performance,"[6]; mouse, in vivo",improved motor performance
same,myelinated axons in sciatic nerves,"[6]; mouse, in vivo",increased number and size
same,neuropathy phenotype,"[6]; oral administration, dose-dependent",partially mitigates the severe neuropathy phenotype
same,percentage of apoptotic Schwann cells,[6]; sciatic nerves,significantly decreases
same,apoptosis,[7],reduced apoptosis
same,"OB-induced behavioral abnormalities (hyperactivity in open field, deficits in step-down passive avoidance)",[8]; chronic administration p.o.,reversed
same,"OB-induced changes of 5-HT, NA, 5-HIAA and DOPAC in the hippocampus","[8]; rat, in vivo",completely reversed
same,"OB-induced decrease in 5-HT, NA and DA levels in the frontal cortex","[8]; rat, in vivo",also reversed
same,IL-1beta-induced down-regulation of collagen type II and beta1-integrin receptor expression,[9],reversed
same,IL-1beta-induced stimulation of protein kinase B Akt,[9],inhibited
same,IL-1beta-induced NF-kappaB activation,"[9]; via inhibition of IkappaBalpha phosphorylation and degradation, p65 phosphorylation and nuclear translocation",suppressed
same,expression of NF-kappaB targets COX-2 and MMP-9,[9]; western blotting,down-regulation
same,immobility time,[10],reduced the immobility time
CCCc1ncc(C[n+]2ccccc2C)c(N)n1 [amprolium],effect on cerebellar granule neurons,[11],caused apoptosis and the generation of reactive oxygen species
